Test results as given in US20060252807A1, “Novel ortho-terphenyl inhibitors of p38 kinase and methods of treating inflammatory disorders” (Kalypsys, Inc., priority 2005, published 2006).

These compounds were tested against T1, active p38 alpha enzyme (Upstate Biotechnology) (Homo sapiens, UniProt Q16539) (assay: p38α biochemical assay (ATP turnover, luminescent detection, Cambrex PKlight)). Conditions: p38α biochemical assay, Table 1 Biological Activity.
T1 construct: purchased Upstate Biotechnology
T1 sequence (Q16539 whole entry): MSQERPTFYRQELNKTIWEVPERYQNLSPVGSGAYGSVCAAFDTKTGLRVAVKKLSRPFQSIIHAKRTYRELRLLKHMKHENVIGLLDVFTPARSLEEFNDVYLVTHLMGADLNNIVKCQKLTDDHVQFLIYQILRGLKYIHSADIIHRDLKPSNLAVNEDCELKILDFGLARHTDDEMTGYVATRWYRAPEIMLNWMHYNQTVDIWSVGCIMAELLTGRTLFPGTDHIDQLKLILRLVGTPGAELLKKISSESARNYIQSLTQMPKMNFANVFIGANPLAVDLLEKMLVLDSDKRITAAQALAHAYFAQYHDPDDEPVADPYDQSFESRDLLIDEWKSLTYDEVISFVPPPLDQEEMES
How it was run: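 Compounds in DMSO are added to active p38 alpha with MapkapK2 whole protein and ATP at 1.4 uM final. Reactions then run for 2 hours at 30C. A luminescent reagent is added last to quantify total ATP consumed.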

Structure (SMILES) | IC50 [nM]
CC(C)CC(NC(=O)OC(C)(C)C)C(=O)NCc1nc(-c2ccc(F)cc2)c(-c2nc(C(=O)NC(C)C)cs2)o1 (stereo not drawn) [Example 329] | > 1000
CC(C)NC(=O)c1csc(-c2oc(CNC(=O)C(C)c3cccc(C(=O)c4ccccc4)c3)nc2-c2ccc(F)cc2)n1 (stereo not drawn) [Example 330] | > 1000
CC(C)NC(=O)c1csc(-c2oc(CNC(=O)C(Cc3ccccn3)NC(=O)OC(C)(C)C)nc2-c2ccc(F)cc2)n1 (stereo not drawn) [Example 332] | > 1000
CC(C)NC(=O)c1csc(-c2oc(CNC(=O)C3Cc4ccccc4CN3C(=O)OC(C)(C)C)nc2-c2ccc(F)cc2)n1 (stereo not drawn) [Example 333] | > 1000
CC(C)NC(=O)c1csc(-c2oc(CN3CCN(C(=O)C(C)O)CC3)nc2-c2ccc(F)cc2)n1 (stereo not drawn) [Example 338] | > 1000
CCC(=O)C(=O)N1CCN(Cc2nc(-c3ccc(F)cc3)c(-c3nc(C(=O)NC(C)C)cs3)o2)CC1 [Example 339] | > 1000
CC(C)CC(=O)N1CCN(Cc2nc(-c3ccc(F)cc3)c(-c3nc(C(=O)NC(C)C)cs3)o2)CC1 [Example 341] | > 1000
CC(C)NC(=O)c1csc(-c2oc(CN3CCN(C(=O)C4=CCCC4)CC3)nc2-c2ccc(F)cc2)n1 [Example 344] | > 1000
CC(C)NC(=O)c1csc(-c2oc(CN3CCN(C(=O)C4CCCO4)CC3)nc2-c2ccc(F)cc2)n1 (stereo not drawn) [Example 346] | > 1000
CC(=O)NCC(=O)N1CCN(Cc2nc(-c3ccc(F)cc3)c(-c3nc(C(=O)NC(C)C)cs3)o2)CC1 [Example 347] | > 1000
CC(C)NC(=O)c1csc(-c2oc(CN3CCN(C(=O)c4ccccc4)CC3)nc2-c2ccc(F)cc2)n1 [Example 348] | > 1000
CC(C)NC(=O)c1csc(-c2oc(CN3CCN(C(=O)c4cccnc4)CC3)nc2-c2ccc(F)cc2)n1 [Example 349] | > 1000
CC(C)NC(=O)c1csc(-c2oc(CN3CCN(C(=O)c4ccccn4)CC3)nc2-c2ccc(F)cc2)n1 [Example 351] | > 1000
CC(C)NC(=O)c1csc(-c2oc(CN3CCN(C(=O)C(O)CCl)CC3)nc2-c2ccc(F)cc2)n1 (stereo not drawn) [Example 352] | > 1000
Cc1cccc(C(=O)N2CCN(Cc3nc(-c4ccc(F)cc4)c(-c4nc(C(=O)NC(C)C)cs4)o3)CC2)c1 [Example 358] | > 1000
Cc1ccccc1C(=O)N1CCN(Cc2nc(-c3ccc(F)cc3)c(-c3nc(C(=O)NC(C)C)cs3)o2)CC1 [Example 359] | > 1000
Cc1ccc(C(=O)N2CCN(Cc3nc(-c4ccc(F)cc4)c(-c4nc(C(=O)NC(C)C)cs4)o3)CC2)cc1 [Example 360] | > 1000
CC(C)NC(=O)c1csc(-c2oc(CN3CCN(C(=O)c4cccc(O)c4)CC3)nc2-c2ccc(F)cc2)n1 [Example 361] | > 1000
CC(C)NC(=O)c1csc(-c2oc(CN3CCN(C(=O)c4ccc(F)cc4)CC3)nc2-c2ccc(F)cc2)n1 [Example 363] | > 1000
CC(C)NC(=O)c1csc(-c2oc(CN3CCN(C(=O)c4cccc(F)c4)CC3)nc2-c2ccc(F)cc2)n1 [Example 364] | > 1000
CCCCCCCC(=O)N1CCN(Cc2nc(-c3ccc(F)cc3)c(-c3nc(C(=O)NC(C)C)cs3)o2)CC1 [Example 365] | > 1000

Structure (SMILES) | IC50 [nM]
CC(C)NC(=O)c1csc(-c2oc(CN3CCN(C(=O)c4ccc(C#N)cc4)CC3)nc2-c2ccc(F)cc2)n1 [Example 366] | > 1000
CC(C)NC(=O)c1csc(-c2oc(CN3CCN(C(=O)c4cccc(C#N)c4)CC3)nc2-c2ccc(F)cc2)n1 [Example 367] | > 1000
CC(C)NC(=O)c1csc(-c2oc(CN3CCN(C(=O)/C=C/c4ccccc4)CC3)nc2-c2ccc(F)cc2)n1 [Example 368] | > 1000
CC(C)NC(=O)c1csc(-c2oc(CN3CCN(C(=O)c4ccc(C=O)cc4)CC3)nc2-c2ccc(F)cc2)n1 [Example 370] | > 1000
Cc1ccccc1CC(=O)N1CCN(Cc2nc(-c3ccc(F)cc3)c(-c3nc(C(=O)NC(C)C)cs3)o2)CC1 [Example 372] | > 1000
Cc1cccc(C(=O)N2CCN(Cc3nc(-c4ccc(F)cc4)c(-c4nc(C(=O)NC(C)C)cs4)o3)CC2)c1C [Example 373] | > 1000
Cc1ccc(C)c(C(=O)N2CCN(Cc3nc(-c4ccc(F)cc4)c(-c4nc(C(=O)NC(C)C)cs4)o3)CC2)c1 [Example 374] | > 1000
Cc1cc(C)cc(C(=O)N2CCN(Cc3nc(-c4ccc(F)cc4)c(-c4nc(C(=O)NC(C)C)cs4)o3)CC2)c1 [Example 375] | > 1000
Cc1ccc(C(=O)N2CCN(Cc3nc(-c4ccc(F)cc4)c(-c4nc(C(=O)NC(C)C)cs4)o3)CC2)cc1C [Example 376] | > 1000
CCc1ccc(C(=O)N2CCN(Cc3nc(-c4ccc(F)cc4)c(-c4nc(C(=O)NC(C)C)cs4)o3)CC2)cc1 [Example 377] | > 1000
COc1ccc(C(=O)N2CCN(Cc3nc(-c4ccc(F)cc4)c(-c4nc(C(=O)NC(C)C)cs4)o3)CC2)cc1 [Example 378] | > 1000
CC(C)NC(=O)c1csc(-c2oc(CN3CCN(C(=O)c4ccc(O)cc4O)CC3)nc2-c2ccc(F)cc2)n1 [Example 385] | ≤ 1000
Cc1ccc(C(=O)N2CCN(Cc3nc(-c4ccc(F)cc4)c(-c4nc(C(=O)NC(C)C)cs4)o3)CC2)cc1F [Example 386] | > 1000
Cc1ccc(F)cc1C(=O)N1CCN(Cc2nc(-c3ccc(F)cc3)c(-c3nc(C(=O)NC(C)C)cs3)o2)CC1 [Example 387] | > 1000
CC(C)NC(=O)c1csc(-c2oc(CN3CCN(C(=O)c4ccccc4Cl)CC3)nc2-c2ccc(F)cc2)n1 [Example 388] | > 1000
CC(C)NC(=O)c1csc(-c2oc(CN3CCN(C(=O)c4ccc(Cl)nc4)CC3)nc2-c2ccc(F)cc2)n1 [Example 389] | > 1000
CC(C)NC(=O)c1csc(-c2oc(CN3CCN(C(=O)c4cccnc4Cl)CC3)nc2-c2ccc(F)cc2)n1 [Example 390] | > 1000
CC(C)NC(=O)c1csc(-c2oc(CN3CCN(C(=O)c4ccnc(Cl)c4)CC3)nc2-c2ccc(F)cc2)n1 [Example 391] | > 1000
CC(C)NC(=O)c1csc(-c2oc(CN3CCN(C(=O)c4cc(Cl)ccn4)CC3)nc2-c2ccc(F)cc2)n1 [Example 392] | > 1000
CC(C)NC(=O)c1csc(-c2oc(CN3CCN(C(=O)c4ccncc4Cl)CC3)nc2-c2ccc(F)cc2)n1 [Example 393] | > 1000
CC(C)NC(=O)c1csc(-c2oc(CN3CCN(C(=O)c4c(F)cccc4F)CC3)nc2-c2ccc(F)cc2)n1 [Example 394] | > 1000

Next, values leading:

IC50 [nM] | Structure (SMILES)
≤ 1000 | CC(C)NC(=O)c1csc(-c2oc(CNC(=O)C(Cc3ccccc3)NC(=O)OC(C)(C)C)nc2-c2ccc(F)cc2)n1 (stereo not drawn) [Example 331]
≤ 1000 | CC(C)NC(=O)c1csc(-c2oc(CNC(=O)C(Cc3ccc(O)cc3)NC(=O)OC(C)(C)C)nc2-c2ccc(F)cc2)n1 (stereo not drawn) [Example 334]
≤ 1000 | CC(=O)N1CCN(Cc2nc(-c3ccc(F)cc3)c(-c3nc(C(=O)NC(C)C)cs3)o2)CC1 [Example 335]
≤ 1000 | CC(C)NC(=O)c1csc(-c2oc(CN3CCN(C(=O)C=O)CC3)nc2-c2ccc(F)cc2)n1 [Example 336]
≤ 1000 | CC(C)NC(=O)c1csc(-c2oc(CN3CCN(C(=O)CC#N)CC3)nc2-c2ccc(F)cc2)n1 [Example 337]
≤ 1000 | CC(C)NC(=O)c1csc(-c2oc(CN3CCN(C(=O)C(C)(C)C)CC3)nc2-c2ccc(F)cc2)n1 [Example 340]
≤ 1000 | CC(C)NC(=O)c1csc(-c2oc(CN3CCN(C(=O)c4cnc[nH]4)CC3)nc2-c2ccc(F)cc2)n1 [Example 342]
≤ 1000 | CC(C)NC(=O)c1csc(-c2oc(CN3CCN(C(=O)c4ncc[nH]4)CC3)nc2-c2ccc(F)cc2)n1 [Example 343]
≤ 1000 | CC(C)NC(=O)c1csc(-c2oc(CN3CCN(C(=O)C(F)(F)F)CC3)nc2-c2ccc(F)cc2)n1 [Example 345]
≤ 1000 | CC(C)NC(=O)c1csc(-c2oc(CN3CCN(C(=O)c4ccncc4)CC3)nc2-c2ccc(F)cc2)n1 [Example 350]
≤ 1000 | Cc1cc(C(=O)N2CCN(Cc3nc(-c4ccc(F)cc4)c(-c4nc(C(=O)NC(C)C)cs4)o3)CC2)n[nH]1 [Example 353]
≤ 1000 | CC(C)NC(=O)c1csc(-c2oc(CN3CCN(C(=O)c4cn(C)cn4)CC3)nc2-c2ccc(F)cc2)n1 [Example 354]
≤ 1000 | CC(C)NC(=O)c1csc(-c2oc(CN3CCN(C(=O)C4CCCCC4)CC3)nc2-c2ccc(F)cc2)n1 [Example 355]
≤ 1000 | CC(C)NC(=O)c1csc(-c2oc(CN3CCN(C(=O)c4cscn4)CC3)nc2-c2ccc(F)cc2)n1 [Example 356]
≤ 1000 | CCOC(=O)CC(=O)N1CCN(Cc2nc(-c3ccc(F)cc3)c(-c3nc(C(=O)NC(C)C)cs3)o2)CC1 [Example 357]
≤ 1000 | CC(C)NC(=O)c1csc(-c2oc(CN3CCN(C(=O)c4ccccc4O)CC3)nc2-c2ccc(F)cc2)n1 [Example 362]
≤ 1000 | CC(C)NC(=O)c1csc(-c2oc(CN3CCN(C(=O)c4ccccc4C=O)CC3)nc2-c2ccc(F)cc2)n1 [Example 369]
≤ 1000 | Cc1ccc(C(=O)N2CCN(Cc3nc(-c4ccc(F)cc4)c(-c4nc(C(=O)NC(C)C)cs4)o3)CC2)c(C)c1 [Example 371]
≤ 1000 | Cc1cccc(C(=O)N2CCN(Cc3nc(-c4ccc(F)cc4)c(-c4nc(C(=O)NC(C)C)cs4)o3)CC2)c1O [Example 379]
≤ 1000 | CC(C)NC(=O)c1csc(-c2oc(CN3CCN(C(=O)Cc4ccccc4O)CC3)nc2-c2ccc(F)cc2)n1 [Example 380]
≤ 1000 | CC(C)NC(=O)c1csc(-c2oc(CN3CCN(C(=O)Cc4cccc(O)c4)CC3)nc2-c2ccc(F)cc2)n1 [Example 381]
≤ 1000 | Cc1ccc(O)c(C(=O)N2CCN(Cc3nc(-c4ccc(F)cc4)c(-c4nc(C(=O)NC(C)C)cs4)o3)CC2)c1 [Example 382]
≤ 1000 | CC(C)NC(=O)c1csc(-c2oc(CN3CCN(C(=O)c4cc(O)ccc4O)CC3)nc2-c2ccc(F)cc2)n1 [Example 383]
≤ 1000 | CC(C)NC(=O)c1csc(-c2oc(CN3CCN(C(=O)c4cccc(O)c4O)CC3)nc2-c2ccc(F)cc2)n1 [Example 384]
